# Experimental data as given in patent publication US20250281465A1, “MOLECULES THAT ENHANCE EXTRACELLULAR VESICLE RELEASE” (priority 2022, published 2025).
# Assays:
# [1] = tested on: mBMDCs; test: Cell viability / cytotoxicity in mBMDCs (MTT); format: cell-based, mouse; conditions: 10 μM
# Experimental: FIGS. 30A-30B. […] After 48 hours incubation, cell viability was determined by MTT assay.
# mBMDCs (10^5 cells/200 μL/well) were treated with 10 and 5 μM of a test compound in 96-well plates overnight. After 18 hours of drug treatment, MTT (0.5 mg/ml) was added to each well. The cells were lysed after 6-8 hours incubation, and absorbance values at 570 and 650 nm were measured. PrestoBlue reagent (#A13261, Thermo Fisher Scientific) was used for cell viability assay in CD63 HTS as described earlier.
# Cell viability assay. mBMDCs (2×10^6 cells/200 μL/well in RPMI1640 supplemented with dialyzed 10% FBS, or 1.5×10^6 cells/200 μL/well in RPMI1640 supplemented with 10% exosome depleted FBS) were treated with 10 μM of each test compound in 96-well plates. After 46-48 hours of compound treatment, MTT (0.5 mg/mL) was added to each well. The cells were lysed after overnight incubation, and absorbance values at 570 and 650 nm were measured.
# [2] = tested on: mBMDCs; test: Costimulatory molecule expression on mBMDCs (flow cytometry); format: cell-based, mouse; conditions: 634 10 μM, ION 1 μM, MPLA 1 μg/mL overnight, vs Veh
# Experimental: FIGS. 26A-26D. Flow cytometric analysis for costimulatory molecules on mBMDCs. For costimulatory molecules on mBMDCs, mBMDCs (10^6 cells/mL) were incubated with 634 (10 μM), ION (1 μM), and MPLA (1 μg/mL) for 20-24 hours. 0.5% DMSO was used as a vehicle. After removing the supernatant, cells were washed with the stain buffer and incubated with anti-mouse CD16/32 antibody for blocking FcR. Cells were stained with an antibody cocktail with anti-CD86 (A), anti-CD80 (B), anti-MHC class II (C), and anti-CD40 (D) antibodies for 30 minutes at 4° C. Cells were then washed and stained with DAPI (4′,6-diamino-2phenylindole) for 10 minutes at room temperature to exclude dead cells (DAPI^high) from the analysis. Data were acquired using MACSQuant Analyzer 10 (Miltenyi Biotec, Germany) and analyzed with FlowJo (version 10.8.1).
# mBMDCs (10^5 cells/200 μL/well) were treated with a test compound (10 μM) or Veh (0.5% DMSO) overnight and then the costimulatory molecule expression on mBMDCs was evaluated using flow cytometry. The cells were stained with antibodies for CD11c, CD80, CD83, CD86, CD40, and MHC class II. Dead cells (DAPI high) were excluded from the analysis. Percent positive population of CD80, CD83, CD86, CD40, or MHC class II in the gated CD11c population were analyzed.
# Costimulatory Molecule Expression Analysis. mBMDCs (10^6 cells/mL) were incubated with 10 μM compound, 1 μM lonomycin and 1 μg/mL MPLA for 20 to 24 hours. 0.5% DMSO was used as vehicle. Cells were incubated with anti-mouse CD16/32 antibody for blocking FcR and stained with anti-CD11c, anti-CD40, […], anti-CD83, […], or anti-MHC class II antibodies for 30 minutes at 4° C. Cells were stained with 4′,6-diamino-2-phenylindole (DAPI) for 10 minutes at RT. Data were acquired using MACSQuant Analyzer 10 (Miltenyi Biotec, Germany) and analyzed with FlowJo (version 10.8.1, Becton Dickinson, Ashland, OR)).
# [3] = tested on: CD63-Tluc-CD9-EmGFP THP-1 reporter cells; test: CD63 Tluc-CD9 EmGFP THP-1 reporter cell assay (EV/exosome release); format: cell-based, human; conditions: 48 hours incubation
# Experimental: All these analogs were evaluated for induction of IL-12 cytokine at 10 μM, followed by dose response IL-12 induction for selected analogs. These analogs were also evaluated for exosome release by quantitating EV release in the supernatant post 48 hours incubation with CD63-Tluc-CD9-EmGFP THP-1 reporter cells.
# In the HTS using CD63-Tluc-CD9EmGFP reporter cells (CD63 HTS), PMA (10 ng/ml) was used as a positive control (Shpigelman et al., 2021) and 0.5% DMSO was used as negative control (vehicle, Veh). Briefly, the harvested cells were resuspended in assay media containing 10% exosome-depleted […] (#A2720801, Thermo Fisher Scientific) and plated at 2×10^5 cells/mL (50 μL/well of 384-well plates) (#3674, Corning). Test compounds were added at a final concentration of 10 μM to cells and incubated for 48 hours at 37° C. Subsequently, the plate was centrifuged, supernatant (25 μL) was transferred, and chemiluminescent was measured as recombinant luciferase activity (RLU) after 10 minutes incubation with TurboLuc assay reagent (TurboLuc™ One-Step Glow Assay kit, Thermo Fisher Scientific). The response that measures activation and subsequent release of EVs was calculated using the following formula; % response=100×(compound RLU−average Veh RLU)/(average PMA RLU−average Veh RLU). The viability of cells was assessed using PrestoBlue reagent (Thermo Fisher Scientific). Briefly, PrestoBlue reagent (2.5 μl) was added to the remaining cells and incubated for 30 minutes at room temperature, followed by fluorescence readout at (Ex 560 nm/Em 590 nm) which was normalized to fluorescence data of the Veh wells within the plate to obtain “% viability” calculated as 100×(compound fluorescence/average Veh fluorescence).
# CD63 Tluc-CD9 EmGFP THP-1 reporter cell assay. CD63 Tluc CD9 EmGFP THP-1 reporter cell (designated as CD63 Tluc reporter cells) were incubated with 10 μM test compounds, ION (1 μM), or 0.5% DMSO (negative control) in the RPMI 1640 supplemented with exosome-depleted FBS at 5×10^4 cells in 200 μL/well for a 96-well plate for 48 hours at 37° C. Subsequently, the plate was centrifuged, the supernatant was transferred, and chemiluminescence was measured by TurboLuc™ Luciferase One-Step Glow Assay Kit. The response that measures activation and subsequent release of EVs was calculated using the following formula; % response=100×(compound RLU−average Veh RLU)/(average PMA RLU−average Veh RLU).
Compound,toxicity to mBMDC [1],CD80 expression on mBMDCs [2],CD86 expression on mBMDCs [2],exosome (EV) release in CD63 reporter THP-1 cells [3]
"CCOC(=O)c1c(NS(=O)(=O)c2cccc3nsnc23)sc(C)c1C [compound 634, Ethyl 2-(benzo[c][1,2,5]thiadiazole-4-sulfonamido)-4,5-dimethylthiophene-3-carboxylate]",non-toxic,increased CD86 and CD80 expression on mBMDCs,increased CD86 and CD80 expression on mBMDCs,
"CCOC(=O)c1c(NS(=O)(=O)c2cccc3c2N=S=N3)sc(C)c1C [#634, ethyl 2-(benzo[c][1,2,5]thiadiazole-4-sulfonamido)-4,5-dimethylthiophene-3-carboxylate]",,,,enhanced exosome release
